Source: patent US20090311795A1, “BILATERAL CONTROL OF FUNCTIONS TRADITIONALLY REGULATED BY ONLY SEROTONIN OR ONLY DOPAMINE” (priority 2002, published 2009)

Columns and labels:
Assay type in all cases: in vivo, human
urinary serotonin = assay: Urinary serotonin monoamine level assay (ELISA, per gram of creatinine) under amino acid precursor dosing
Method: (§1) For monoamine testing of monoamines of The System, urine is collected approximately 5 to 6 hours prior onset of the sleep cycle and just prior to any amino acid dosing the subject may or may not be taking close to that time period. Once the urine sample is obtained, laboratory assay of the monoamine of The System are performed as well as a urinary creatinine assay and the results are reported in terms of micrograms of monoamine per gram of creatinine.
(§2) Referring now to the data summarized herein, the data is from a database of subjects who have been diagnosed by a licensed healthcare provider as having one or more monoamine dysfunction(s) associated with the serotonin and/or catecholamine systems. The database fields include: • 1. The monoamine diagnosis made by a licensed healthcare provider; • 2. Amino acid dosing of amino acid precursors of the serotonin and dopamine monoamines; • 3. Laboratory assay of urinary serotonin and catecholamine monoamine levels; • 4. The subject's sex; • 5. The subject's age and date of birth; • 6. The subject's weight; • 7. The subject's height; • 8. Any allergies the subject might have; • 9. Any medications (prescription and/or non-prescription) with dosing that the subject might be taking; • 10. Type of license held by the caregiver; and • 11. The subject's state and zip code of residence.
(§3) Also referring to the summarized date, the monoamine analysis performed was subjected to the following criteria: • 1. Urinary monoamine reference ranges reported by the laboratory were determined after precision and accuracy studies had validated initial calibration results; • 2. The reported reference ranges of the laboratory performing the assays were within ±2 standard deviations of the mean for the general population used in calibration; • 3. The reported reference ranges are for adults (18 years of age and older); • 4. Urinary monoamine samples were collected at least 3 to 4 hours after a subject took a dose of amino acid precursors; • 5. Urinary monoamine samples were collected 5 to 6 hours before the onset of the sleep cycle (bed time); • 6. […]

[1] = tested on: urinary serotonin or dopamine; assay: Phase (1, 2, 3) of urinary monoamine response to amino acid precursor dosing, from serial urinary assays; conditions: for amino acid dosing change required to move between phase 1 and phase 3, much larger changes / amino acid dosing change that moved subjects between phase 1 and phase 3, very small changes: 5-HTP with L-Tyrosine or L-Dopa; for amino acid dosing change required to move between phase 1 and phase 3, much larger changes: other subjects; for amino acid dosing change that moved subjects between phase 1 and phase 3, very small changes: some observed subjects
From the text: However, according to certain embodiments, the predictability of determining an individual or group response of urinary serotonin and/or dopamine monoamine levels between two assays is possible when it is properly determined that the subject is in one of three phases of urinary monoamine response to amino acid precursor administration. As identified above, there are at least three phases (referred to as phase 1, phase 2, and phase 3) of urinary monoamine response to amino acid precursor administration. In phase 1, the urinary monoamine level drops as the total amino acid precursor dosing of serotonin and dopamine is increased. In phase 1, the urinary monoamine level increases as the total amino acid precursor dosing of serotonin and dopamine is decreased. In phase 2, the urinary monoamine level remains below the therapeutic range and relatively constant as the total amount of monoamine amino acid precursor dosing is increased or decreased. In order for urinary monoamines to be in phase 2, subtherapeutic urinary monoamine levels must exist. In phase 3, the urinary monoamine level increases as the total amount of amino acid precursor dosing is increased. In phase 3, the urinary monoamine level decreases as the total amount of amino acid precursor dosing is decreased.
In certain embodiments, the phase of the urinary monoamines in response to amino acid therapy can properly be determined by obtaining two laboratory assays on two separate days with the subject taking a different amino acid dosing of serotonin and catecholamine precursors for each test. In general, at least 7 days must elapse between amino acid dosing changes and laboratory assay, but shorter time periods may be indicated at the decision of the individual obtaining the test. The laboratory assays should also be performed on samples that are collected at least 3 to 5 days after the last change in amino acid precursor dosing or start in amino acid precursor dosing of the serotonin and dopamine monoamines. If during the first assay the subject was taking supplemental amino acid precursors of serotonin and dopamine monoamines, then it is preferable that the second assay is performed after the dosing of the supplemental amino acid precursors has changed. The change in supplemental amino acid precursor may be for the serotonin monoamine and/or the dopamine monoamine. If both of the supplemental amino acid precursors of the serotonin and dopamine monoamines are changed, it is preferable that the dosing of both supplemental amino acid precursors is increased or the dosing of both supplemental amino acid precursors is decreased. The subject also should have not missed any dosing of amino acid precursors in the 3 to 5 day period before the sample is collected.
1. Phase 1: • a. Where an increase in amino acid precursor dosing of either the serotonin amino acid precursor and/or the dopamine amino acid precursor causes a decrease in the second assay urinary serotonin or dopamine monoamine levels. • b. Where a decrease in amino acid dosing of either the serotonin amino acid precursor and/or the dopamine amino acid precursor causes an increase in the second assay urinary serotonin or dopamine monoamine levels.
2. Phase 2: • a. Where urinary serotonin and/or dopamine monoamine levels are less than the therapeutic range.
3. Phase 3: • a. Where an increase in amino acid precursor dosing of either the serotonin amino acid precursor and/or the dopamine amino acid precursor causes an increase in the second assay urinary serotonin or dopamine monoamine levels. • b. Where a decrease in the amino acid precursor dosing of either the serotonin amino acid precursor and/or the dopamine amino acid precursor causes a decrease in the second assay urinary serotonin or dopamine monoamine levels.

urinary dopamine = assay: Urinary dopamine monoamine level assay (RIA, per gram of creatinine) under amino acid precursor dosing
Method: as §1, §2, §3

N[C@@H](Cc1ccc(O)c(O)c1)C(=O)O [L-dopa, 1-3,4-dihydroxyphenylalanine, reference compound]
urinary serotonin level (urinary serotonin; Example 2, one subject, increase in L-dopa between first and third assay): increased
urinary excretion of serotonin in phase 3 (urinary serotonin; addition of unopposed L-dopa): increases markedly
amino acid dosing change required to move between phase 1 and phase 3, much larger changes [1]: 900 mg
amino acid dosing change that moved subjects between phase 1 and phase 3, very small changes [1]: 60 mg

N[C@@H](Cc1c[nH]c2ccc(O)cc12)C(=O)O [5-HTP, 5-hydroxytryptophan]
excretion of dopamine in phase 3 by the kidneys (urinary dopamine; administration of 5-HTP alone): marked increase
amino acid dosing change required to move between phase 1 and phase 3, much larger changes [1]: 900 mg
amino acid dosing change that moved subjects between phase 1 and phase 3, very small changes [1]: 37.5 mg
5-HTP dosing giving phase 3 therapeutic urinary serotonin level ([1]; Example 4, final assay, tyrosine increased): 150 mg per day
change of 5-HTP dosing that moved urinary serotonin levels from phase 3 to phase 1 ([1]; Example 6, between test 1 and test 2): 150 mg per day
daily dosing at which the phase 2/phase 3 inflection point occurs ([1]; dose-response curve of one embodiment, urinary serotonin, balanced amino acids): approximately 800 milligrams per day
daily dosing at the phase 2/phase 3 inflection point, low-dose subjects ([1]; subjects who experience the inflection point at low dose): 50 milligrams per day
daily dosing at the phase 2/phase 3 inflection point, high-dose subjects ([1]; subjects without inflection point until this dose per day): 1,500 milligrams

N[C@@H](Cc1ccc(O)cc1)C(=O)O [L-Tyrosine]
urinary serotonin levels on the second laboratory assay (urinary serotonin; Example 1, one subject, increase in tyrosine): marked increase
change in urinary dopamine levels (urinary dopamine; Example 1, one subject, increase in tyrosine, dopamine subtherapeutic): without much change
highest urinary dopamine established in phase 3 by administration of tyrosine (urinary dopamine; phase 3, tyrosine as dopamine precursor): ≤ 475 micrograms of dopamine per gram of creatinine
amino acid dosing change required to move between phase 1 and phase 3, much larger changes [1]: 5,000 mg
amino acid dosing change that moved subjects between phase 1 and phase 3, very small changes [1]: 375 mg
